In patent US9944646B2, “Bicyclic azaheterocyclobenzylamines as PI3K inhibitors” (Incyte Corporation, priority 2012, dated 2018):
Where a name gives a salt, the structure may show the parent alone.

What follows are compounds tested against PI3Kδ (p110δ/p85α) (Homo sapiens (Human), UniProt O00329) (assay: PI3Kδ Scintillation Proximity Assay (Example A3)).
Type: biochemical
From the text: Example A3: PI3Kδ Scintillation Proximity Assay
[γ-^33P]ATP (10 mCi/mL) was purchased from Perkin-Elmer (Waltham, Mass.). Lipid kinase substrate, D-myo-Phosphatidylinositol 4,5-bisphosphate (PtdIns(4,5)P2)D (+)-sn-1,2-di-O-octanoylglyceryl, 3-O-phospho linked (PIP2), CAS 204858-53-7, was purchased from Echelon Biosciences (Salt Lake City, Utah). PI3Kδ (p110δ/p85α) was purchased from Millipore (Bedford, Mass.). ATP, MgCl2, DTT, EDTA, MOPS and CHAPS were purchased from Sigma-Aldrich (St. Louis, Mo.). Wheat Germ Agglutinin (WGA) YSi SPA Scintillation Beads was purchased from GE healthcare life sciences (Piscataway, N.J.).
The kinase reaction was conducted in polystyrene 384-well matrix white plate from Thermo Fisher Scientific in a final volume of 25 μL. Inhibitors were first diluted serially in DMSO and added to the plate wells before the addition of other reaction components. The final concentration of DMSO in the assay was 0.5%. The PI3K assays were carried out at room temperature in 20 mM MOPS, pH 6.7, 10 mM MgCl2, 5 mM DTT and CHAPS 0.03%. Reactions were initiated by the addition of ATP, the final reaction mixture consisted of 20 µM PIP2, 20 µM ATP, 0.2 μCi [γ-^33P]ATP, 4 nM PI3Kδ. Reactions were incubated for 210 min and terminated by the addition of 40 μL SPA beads suspended in quench buffer: 150 mM potassium phosphate pH 8.0, 20% glycerol. 25 mM EDTA, 400 µM ATP. The final concentration of SPA beads was 1.0 mg/mL. After the plate sealing, plates were shaken overnight at room temperature and centrifuged at 1800 rpm for 10 minutes, the radioactivity of the product was determined by scintillation counting on Topcount (Perkin-Elmer). IC50 determination was performed by fitting the curve of percent control activity versus the log of the inhibitor concentration using the GraphPad Prism 3.0 software. […] IC50 data for Examples 1-25 is presented in Table 3 for PI3Kδ as determined by the assay of Example A2 or A3 as indicated

Chain of PI3Kδ (p110δ/p85α) (O00329 whole entry): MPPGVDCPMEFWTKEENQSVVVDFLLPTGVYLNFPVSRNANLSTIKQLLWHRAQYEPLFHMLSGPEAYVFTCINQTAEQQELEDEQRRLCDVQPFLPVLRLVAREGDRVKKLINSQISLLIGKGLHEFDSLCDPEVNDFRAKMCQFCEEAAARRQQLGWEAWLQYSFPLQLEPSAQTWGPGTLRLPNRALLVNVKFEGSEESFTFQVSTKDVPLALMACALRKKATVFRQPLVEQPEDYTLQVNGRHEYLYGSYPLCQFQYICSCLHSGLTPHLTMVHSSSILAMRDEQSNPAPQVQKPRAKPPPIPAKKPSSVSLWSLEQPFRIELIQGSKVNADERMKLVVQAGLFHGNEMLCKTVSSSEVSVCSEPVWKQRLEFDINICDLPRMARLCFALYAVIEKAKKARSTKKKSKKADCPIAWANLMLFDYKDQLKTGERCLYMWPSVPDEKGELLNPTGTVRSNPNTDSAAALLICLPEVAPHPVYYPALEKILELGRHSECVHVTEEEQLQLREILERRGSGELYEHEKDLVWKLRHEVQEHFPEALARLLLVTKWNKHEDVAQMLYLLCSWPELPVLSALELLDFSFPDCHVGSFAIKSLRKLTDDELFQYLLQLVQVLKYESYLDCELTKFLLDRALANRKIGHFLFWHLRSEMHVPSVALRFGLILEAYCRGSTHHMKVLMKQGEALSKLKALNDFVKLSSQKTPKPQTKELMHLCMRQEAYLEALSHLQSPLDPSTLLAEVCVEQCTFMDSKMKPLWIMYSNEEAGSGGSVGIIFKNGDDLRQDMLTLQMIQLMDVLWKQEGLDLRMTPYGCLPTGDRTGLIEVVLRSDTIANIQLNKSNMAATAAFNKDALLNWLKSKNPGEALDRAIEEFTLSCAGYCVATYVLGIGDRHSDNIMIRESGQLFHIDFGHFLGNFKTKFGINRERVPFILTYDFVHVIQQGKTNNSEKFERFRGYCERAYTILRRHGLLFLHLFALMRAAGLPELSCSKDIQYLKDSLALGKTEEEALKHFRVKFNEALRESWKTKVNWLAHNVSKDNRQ
Chain of PI3Kδ (p110δ/p85α) (P27986 whole entry partner): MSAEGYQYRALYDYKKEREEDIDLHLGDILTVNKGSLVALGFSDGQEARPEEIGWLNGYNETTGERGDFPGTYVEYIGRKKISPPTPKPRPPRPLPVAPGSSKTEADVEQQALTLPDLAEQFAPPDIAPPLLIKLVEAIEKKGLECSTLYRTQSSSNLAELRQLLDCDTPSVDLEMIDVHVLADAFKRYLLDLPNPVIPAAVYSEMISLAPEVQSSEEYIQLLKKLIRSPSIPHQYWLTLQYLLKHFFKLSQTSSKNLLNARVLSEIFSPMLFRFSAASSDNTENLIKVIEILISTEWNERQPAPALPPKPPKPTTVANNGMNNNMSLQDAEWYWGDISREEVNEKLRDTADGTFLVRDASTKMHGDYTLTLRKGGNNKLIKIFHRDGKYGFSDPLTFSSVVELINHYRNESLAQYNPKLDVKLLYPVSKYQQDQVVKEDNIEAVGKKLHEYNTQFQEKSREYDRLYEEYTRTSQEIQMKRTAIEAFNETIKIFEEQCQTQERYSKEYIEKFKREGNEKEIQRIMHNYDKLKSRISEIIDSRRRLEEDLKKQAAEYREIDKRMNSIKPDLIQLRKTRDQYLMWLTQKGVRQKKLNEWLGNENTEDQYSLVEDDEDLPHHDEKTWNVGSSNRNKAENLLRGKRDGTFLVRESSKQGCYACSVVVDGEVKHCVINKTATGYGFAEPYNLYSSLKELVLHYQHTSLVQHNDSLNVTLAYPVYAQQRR

Row | Compound | IC50 [nM]
1 | Cc1c(Cl)cc(C(C)n2nc(C)c3c(N)ncnc32)c2c1CNCCO2 (stereo not shown) [Example 2, 1-[1-(7-Chloro-6-methyl-2,3,4,5-tetrahydro-1,4-benzoxazepin-9-yl)ethyl]-3-methyl-1H-pyrazolo[3,4-d]pyrimidin-4-amine bis(trifluoroacetate)] | ≤ 100
2 | CC(=O)N1CCOc2c(C(C)n3nc(C)c4c(N)ncnc43)cc(Cl)c(C)c2C1 (stereo not shown) [Example 19, 1-[1-(4-Acetyl-7-chloro-6-methyl-2,3,4,5-tetrahydro-1,4-benzoxazepin-9-yl)ethyl]-3-methyl-1H-pyrazolo[3,4-d]pyrimidin-4-amine trifluoroacetate] | ≤ 100
3 | Cc1c(Cl)cc(C(C)n2nc(C)c3c(N)ncnc32)c2c1CN(S(=O)(=O)C1CC1)CCO2 (stereo not shown) [Example 18, 1-{1-[7-Chloro-4-(cyclopropylsulfonyl)-6-methyl-2,3,4,5-tetrahydro-1,4-benzoxazepin-9-yl]ethyl}-3-methyl-1H-pyrazolo[3,4-d]pyrimidin-4-amine trifluoroacetate] | ≤ 100
4 | COCC(=O)N1CCOc2c(C(C)n3nc(C)c4c(N)ncnc43)cc(Cl)c(C)c2C1 (stereo not shown) [Example 21, 1-{1-[7-Chloro-4-(methoxyacetyl)-6-methyl-2,3,4,5-tetrahydro-1,4-benzoxazepin-9-yl]ethyl}-3-methyl-1H-pyrazolo[3,4-d]pyrimidin-4-amine trifluoroacetate] | ≤ 100
5 | Cc1c(Cl)cc(C(C)n2nc(C)c3c(N)ncnc32)c2c1CN(C1CN(C(=O)OC(C)(C)C)C1)CCO2 (stereo not shown) [Example 3, tert-Butyl 3-[9-[1-(4-amino-3-methyl-1H-pyrazolo[3,4-d]pyrimidin-1-yl)ethyl]-7-chloro-6-methyl-2,3-dihydro-1,4-benzoxazepin-4(5H)-yl]azetidine-1-carboxylate] | ≤ 100
6 | Cc1c(Cl)cc(C(C)n2nc(C)c3c(N)ncnc32)c2c1C(=O)NCCO2 (stereo not shown) [Example 25, 9-[1-(4-Amino-3-methyl-1H-pyrazolo[3,4-d]pyrimidin-1-yl)ethyl]-7-chloro-6-methyl-3,4-dihydro-1,4-benzoxazepin-5(2H)-one trifluoroacetate] | ≤ 100
7 | Cc1c(Cl)cc(C(C)n2nc(C)c3c(N)ncnc32)c2c1CN(C1CCCC1)CCO2 (stereo not shown) [Example 6, 1-[1-(7-Chloro-4-cyclopentyl-6-methyl-2,3,4,5-tetrahydro-1,4-benzoxazepin-9-yl)ethyl]-3-methyl-1H-pyrazolo[3,4-d]pyrimidin-4-amine bis(trifluoroacetate)] | ≤ 100
8 | Cc1c(Cl)cc(C(C)n2nc(C)c3c(N)ncnc32)c2c1CN(C1CCC1)CCO2 (stereo not shown) [Example 5, 1-[1-(7-Chloro-4-cyclobutyl-6-methyl-2,3,4,5-tetrahydro-1,4-benzoxazepin-9-yl)ethyl]-3-methyl-1H-pyrazolo[3,4-d]pyrimidin-4-amine bis(trifluoroacetate)] | ≤ 100
9 | Cc1c(Cl)cc(C(C)n2nc(C)c3c(N)ncnc32)c2c1CN(c1cnccn1)CCO2 (stereo not shown) [Example 24, 1-[1-(7-Chloro-6-methyl-4-pyrazin-2-yl-2,3,4,5-tetrahydro-1,4-benzoxazepin-9-yl)ethyl]-3-methyl-1H-pyrazolo[3,4-d]pyrimidin-4-amine bis(trifluoroacetate)] | ≤ 100
10 | Cc1c(Cl)cc(C(C)n2nc(C)c3c(N)ncnc32)c2c1CN(c1ncc(C#N)s1)CCO2 (stereo not shown) [Example 23, 2-[9-[1-(4-Amino-3-methyl-1H-pyrazolo[3,4-d]pyrimidin-1-yl)ethyl]-7-chloro-6-methyl-2,3-dihydro-1,4-benzoxazepin-4(5H)-yl]-1,3-thiazole-5-carbonitrile trifluoroacetate] | ≤ 100
11 | Cc1ccccc1NC(=O)N1CCOc2c(C(C)n3nc(C)c4c(N)ncnc43)cc(Cl)c(C)c2C1 (stereo not shown) [Example 15, 9-[1-(4-Amino-3-methyl-1H-pyrazolo[3,4-d]pyrimidin-1-yl)ethyl]-7-chloro-6-methyl-N-(2-methylphenyl)-2,3-dihydro-1,4-benzoxazepine-4(5H)-carboxamide trifluoroacetate] | ≤ 100
12 | Cc1c(Cl)cc(C(C)n2nc(C)c3c(N)ncnc32)c2c1CN(C(=O)C(C)C)CCO2 (stereo not shown) [Example 22, 1-[1-(7-Chloro-4-isobutyryl-6-methyl-2,3,4,5-tetrahydro-1,4-benzoxazepin-9-yl)ethyl]-3-methyl-1H-pyrazolo[3,4-d]pyrimidin-4-amine trifluoroacetate] | ≤ 100
13 | Cc1c(Cl)cc(C(C)n2nc(C)c3c(N)ncnc32)c2c1CN(C1CCCCC1)CCO2 (stereo not shown) [Example 7, 1-[1-(7-Chloro-4-cyclohexyl-6-methyl-2,3,4,5-tetrahydro-1,4-benzoxazepin-9-yl)ethyl]-3-methyl-1H-pyrazolo[3,4-d]pyrimidin-4-amine bis(trifluoroacetate)] | ≤ 100
14 | Cc1c(Cl)cc(C(C)n2nc(C)c3c(N)ncnc32)c2c1CN(S(=O)(=O)c1ccccc1)CCO2 (stereo not shown) [Example 14, 1-{1-[7-Chloro-6-methyl-4-(phenylsulfonyl)-2,3,4,5-tetrahydro-1,4-benzoxazepin-9-yl]ethyl}-3-methyl-1H-pyrazolo[3,4-d]pyrimidin-4-amine trifluoroacetate] | ≤ 100
15 | Cc1c(Cl)cc(C(C)n2nc(C)c3c(N)ncnc32)c2c1CN(C(=O)OC(C)(C)C)CCO2 (stereo not shown) [Example 1, tert-Butyl 9-[1-(4-amino-3-methyl-1H-pyrazolo[3,4-d]pyrimidin-1-yl)ethyl]-7-chloro-6-methyl-2,3-dihydro-1,4-benzoxazepine-4(5H)-carboxylate] | 100 to 500
16 | Cc1c(Cl)cc(C(C)n2nc(C)c3c(N)ncnc32)c2c1CN(C(=O)c1ccccc1)CCO2 (stereo not shown) [Example 16, 1-[1-(4-Benzoyl-7-chloro-6-methyl-2,3,4,5-tetrahydro-1,4-benzoxazepin-9-yl)ethyl]-3-methyl-1H-pyrazolo[3,4-d]pyrimidin-4-amine trifluoroacetate] | ≤ 100
17 | COC1CCC(N2CCOc3c(C(C)n4nc(C)c5c(N)ncnc54)cc(Cl)c(C)c3C2)CC1 (stereo not shown) [Example 8, 1-{1-[7-Chloro-4-(4-methoxycyclohexyl)-6-methyl-2,3,4,5-tetrahydro-1,4-benzoxazepin-9-yl]ethyl}-3-methyl-1H-pyrazolo[3,4-d]pyrimidin-4-amine bis(trifluoroacetate)] | ≤ 100

The compounds below were run against PI3Kδ (Homo sapiens (Human), UniProt O00329) (assay: PI3K Enzyme Assay (Example A2), [γ-33P]ATP filter plate).
Type: biochemical
Summary of the method: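 Recombinant PI3Kδ at 2.9 nM with 50 µM PIP2 in MOPS pH 6.7, MgCl2, DTT, CHAPS, 0.5% DMSO; started with 1000 μM ATP including [γ-33P]ATP, 180 min at room temperature. Phosphorylated product captured on PVDF filter plates and scintillation-counted; IC50 from percent-control activity vs log concentration.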

Chain of PI3Kδ (O00329 whole entry): as the sequence (O00329 whole entry) above
Chain of PI3Kδ (P27986 whole entry partner): as the sequence (P27986 whole entry partner) above

Row | Compound | IC50 [nM]
18 | Cc1nn(C(C)c2cc(Cl)c(C#N)c3c2OC(C)CN(Cc2cccnc2)C3)c2ncnc(N)c12 (single isomer, unassigned) [Example 59, 9-[1-(4-Amino-3-methyl-1H-pyrazolo[3,4-d]pyrimidin-1-yl)ethyl]-7-chloro-2-methyl-4-(pyridin-3-ylmethyl)-2,3,4,5-tetrahydro-1,4-benzoxazepine-6-carbonitrile] | ≤ 100
19 | Cc1nn(C(C)c2cc(Cl)c(C#N)c3c2OCCN(C2CN(S(C)(=O)=O)C2)C3)c2ncnc(N)c12 (stereo not shown) [Example 90, 9-[1-(4-amino-3-methyl-1H-pyrazolo[3,4-d]pyrimidin-1-yl)ethyl]-7-chloro-4-[1-(methylsulfonyl)azetidin-3-yl]-2,3,4,5-tetrahydro-1,4-benzoxazepine-6-carbonitrile] | ≤ 100
20 | Cc1nn(C(C)c2cc(Cl)c(C#N)c3c2OCCN(C2CN(C(=O)NC(C)C)C2)C3)c2ncnc(N)c12 (stereo not shown) [Example 91, 3-[9-[1-(4-amino-3-methyl-1H-pyrazolo[3,4-d]pyrimidin-1-yl)ethyl]-7-chloro-6-cyano-2,3-dihydro-1,4-benzoxazepin-4(5H)-yl]-N-isopropylazetidine-1-carboxamide] | ≤ 100
21 | CC(=O)N1CC(N2Cc3c(F)c(Cl)cc(C(C)n4nc(C)c5c(N)ncnc54)c3OC(C)C2=O)C1 (single isomer, unassigned) [Example 72, 4-(1-Acetylazetidin-3-yl)-9-[1-(4-amino-3-methyl-1H-pyrazolo[3,4-d]pyrimidin-1-yl)ethyl]-7-chloro-6-fluoro-2-methyl-4,5-dihydro-1,4-benzoxazepin-3(2H)-one] | 100 to 500
22 | CCC(=O)N1CC(N2Cc3c(C#N)c(Cl)cc(C(C)n4nc(C)c5c(N)ncnc54)c3OC(C)C2)C1 (single isomer, unassigned) [Example 95, 9-[1-(4-amino-3-methyl-1H-pyrazolo[3,4-d]pyrimidin-1-yl)ethyl]-7-chloro-2-methyl-4-(1-propionylazetidin-3-yl)-2,3,4,5-tetrahydro-1,4-benzoxazepine-6-carbonitrile] | ≤ 100
